Earlier results, collected in patent publication US6331660A, “Maize DIMBOA biosynthesis genes” (Dekalb Genetics Corporation, priority 1998, dated 2001).

Target: T1, native E. coli α2β2 complex of tryptophan synthase α (TSA) and tryptophan synthase β (TSB) (Escherichia coli, UniProt P0A877)
T1 construct: by the native E. coli α2β2 complex
Settings: conversion of indole-3-glycerol phosphate to indole, Weischet et al., 1976

T1 sequence (P0A879 2-397): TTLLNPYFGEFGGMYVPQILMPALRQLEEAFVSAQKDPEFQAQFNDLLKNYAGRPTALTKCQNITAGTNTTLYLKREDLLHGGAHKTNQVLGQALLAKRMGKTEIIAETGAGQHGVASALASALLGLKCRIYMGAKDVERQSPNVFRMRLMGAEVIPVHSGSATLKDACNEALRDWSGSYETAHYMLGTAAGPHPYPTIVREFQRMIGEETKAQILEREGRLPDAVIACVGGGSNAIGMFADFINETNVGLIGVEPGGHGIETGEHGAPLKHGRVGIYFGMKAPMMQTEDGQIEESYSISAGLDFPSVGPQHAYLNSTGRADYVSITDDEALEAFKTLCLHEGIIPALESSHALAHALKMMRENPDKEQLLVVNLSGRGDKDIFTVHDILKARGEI
T1 sequence (P0A877 whole entry): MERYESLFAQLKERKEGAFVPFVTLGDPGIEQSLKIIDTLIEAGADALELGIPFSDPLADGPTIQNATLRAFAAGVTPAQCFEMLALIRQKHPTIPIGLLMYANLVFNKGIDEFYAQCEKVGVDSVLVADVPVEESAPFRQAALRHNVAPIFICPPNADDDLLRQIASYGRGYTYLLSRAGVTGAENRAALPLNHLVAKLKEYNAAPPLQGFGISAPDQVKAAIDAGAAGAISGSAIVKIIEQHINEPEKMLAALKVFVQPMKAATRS

For `O=P(O)(O)OCC(O)C(O)c1c[nH]c2ccccc12` (centres unmarked) [indole-3-glycerol phosphate], the kcat is listed as 0.2 s⁻¹ and the Km (read-out: Km^indole-3-glycerol phosphate) is listed as 27 µM.
